Laboratory results published in PubChem BioAssay AID248 (DTP/NCI, 2004).
Toxic doses and inconclusive results are not listed. No stated cut-off is given here; in the data, active means T/C of 150% or more; inactive means T/C below 125%. Peptide text beside a SMILES is read from it. * marks the point of attachment. Tos = Cc1ccc(S(=O)(=O)*)cc1

Test system: L1210 leukemia ip in BDF1 mice, survival T/C
Assay: NCI In Vivo Anticancer Drug Screen. Data for tumor model L1210 Leukemia (intraperitoneal) in B6D2F1 (BDF1) mice
Conditions: endpoint: mean survival time, higher = longer survival
In short: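 Ratio derived from survival: compound-dosed mice over vehicle-dosed mice, all bearing a transplantable tumor.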

[1] = dose: 100.0 mg/kg/injection, schedule: Q01DX001 (ip), vehicle: saline
[2] = dose: 200.0 mg/kg/injection, schedule: Q01DX001 (ip), vehicle: saline
[3] = dose: 400.0 mg/kg/injection, schedule: Q01DX001 (ip), vehicle: saline
[4] = dose: 75.0 mg/kg/injection, schedule: Q01DX001 (ip), vehicle: other
[5] = dose: 100.0 mg/kg/injection, schedule: Q04DX002 (ip), vehicle: saline with Tween-80
[6] = dose: 200.0 mg/kg/injection, schedule: Q04DX002 (ip), vehicle: saline with Tween-80
[7] = dose: 400.0 mg/kg/injection, schedule: Q04DX002 (ip), vehicle: saline with Tween-80
[8] = dose: 400.0 mg/kg/injection, schedule: Q04DX003 (ip), vehicle: Klucel (hydroxypropylcellulose) (HPC)
[9] = dose: 100.0 mg/kg/injection, schedule: Q04DX003 (ip), vehicle: saline
[10] = dose: 200.0 mg/kg/injection, schedule: Q04DX003 (ip), vehicle: saline
[11] = dose: 400.0 mg/kg/injection, schedule: Q04DX003 (ip), vehicle: saline
[12] = dose: 100.0 mg/kg/injection, schedule: Q04DX003 (ip), vehicle: saline with Tween-80
[13] = dose: 200.0 mg/kg/injection, schedule: Q04DX003 (ip), vehicle: saline with Tween-80
[14] = dose: 400.0 mg/kg/injection, schedule: Q04DX003 (ip), vehicle: saline with Tween-80

Measured: T/C

CCCCCCNC(=O)Nc1ccc(Cl)c(Cl)c1
inactive: [1] 98 % of control | [2] 101 % of control | [3] 95 % of control

CCOc1cc(OCC)c(OCC)cc1/C=C1\N=C(c2ccccc2)OC1=O
inactive: dose: 100.0 mg/kg/injection, schedule: Q04DX002 (ip), vehicle: Klucel (hydroxypropylcellulose) (HPC) 96 % of control | dose: 200.0 mg/kg/injection, schedule: Q04DX002 (ip), vehicle: Klucel (hydroxypropylcellulose) (HPC) 96 % of control | dose: 400.0 mg/kg/injection, schedule: Q04DX002 (ip), vehicle: Klucel (hydroxypropylcellulose) (HPC) 96 % of control

O=C=Nc1ccccc1-c1ccccc1
inactive: [5] 98 % of control | [6] 98 % of control | [7] 100 % of control

CC(C)=C(Cl)c1c(C)cc(C)c(CC(N)=O)c1C
inactive: dose: 100.0 mg/kg/injection, schedule: Q01DX009 (ip), vehicle: Klucel (hydroxypropylcellulose) (HPC) 98 % of control | dose: 100.0 mg/kg/injection, schedule: Q04DX003 (ip), vehicle: Klucel (hydroxypropylcellulose) (HPC) 93 % of control | dose: 200.0 mg/kg/injection, schedule: Q01DX009 (ip), vehicle: Klucel (hydroxypropylcellulose) (HPC) 105 % of control | dose: 200.0 mg/kg/injection, schedule: Q04DX003 (ip), vehicle: Klucel (hydroxypropylcellulose) (HPC) 98 % of control | dose: 400.0 mg/kg/injection, schedule: Q01DX009 (ip), vehicle: Klucel (hydroxypropylcellulose) (HPC) 96 % of control | [8] 98 % of control

CCOC(=S)SCC(=O)c1cccc([N+](=O)[O-])c1
inactive: [1] 107 % of control | [2] 103 % of control | [3] 101 % of control

CCCc1cn(C(=O)NC2CCCCC2)c2ccccc12
inactive: [1] 94 % of control | [9] 106 % of control | [2] 94 % of control | [10] 112 % of control | [3] 87 % of control | [11] 93 % of control

O=[N+]([O-])c1ccc(Cl)cc1/C=N\N=C1c2ccccc2-c2ccccc21
inactive: dose: 150.0 mg/kg/injection, schedule: Q01DX001 (ip), vehicle: other 94 % of control | dose: 300.0 mg/kg/injection, schedule: Q01DX001 (ip), vehicle: other 100 % of control

NC(=O)C(O)C(O)C(O)C(O)CCl (configuration not stated)
inactive: dose: 50.0 mg/kg/injection, schedule: Q04DX002 (ip), vehicle: saline with Tween-80 96 % of control | [5] 93 % of control | [6] 98 % of control | [7] 96 % of control

CCOC(=O)c1c(N)[nH]c(SSc2[nH]c(N)c(C(=O)OCC)c2C(=O)OCC)c1C(=O)OCC
inactive: [12] 99 % of control | [13] 96 % of control | [14] 89 % of control

Nc1cc2c3c(cccc3c1Br)C(=O)N(Cc1ccccc1)C2=O
inactive: [8] 88 % of control

Cc1cc(N=NC(=N)N)ccc1NN=C(N)N
inactive: dose: 37.5 mg/kg/injection, schedule: Q01DX Z (oral), vehicle: carboxymethylcellulose (CMC) 115 % of control | dose: 75.0 mg/kg/injection, schedule: Q01DX Z (oral), vehicle: carboxymethylcellulose (CMC) 100 % of control | dose: 150.0 mg/kg/injection, schedule: Q01DX Z (oral), vehicle: carboxymethylcellulose (CMC) 96 % of control | dose: 300.0 mg/kg/injection, schedule: Q01DX Z (oral), vehicle: carboxymethylcellulose (CMC) 102 % of control

Cc1ccc(S(=O)(=O)NCC(=O)NCC(=O)O)cc1 (Tos-Gly-Gly-OH)
inactive: dose: 100.0 mg/kg/injection, schedule: Q01DX009 (ip), vehicle: saline 105 % of control | dose: 200.0 mg/kg/injection, schedule: Q01DX009 (ip), vehicle: saline 94 % of control | dose: 400.0 mg/kg/injection, schedule: Q01DX009 (ip), vehicle: saline 96 % of control

Nc1nc2c(ncn2C2CC(CO)C(O)C2O)c(=O)[nH]1 (configuration not stated)
inactive: dose: 9.5 mg/kg/injection, schedule: Q01DX009 (ip), vehicle: other 101 % of control | dose: 19.0 mg/kg/injection, schedule: Q04DX003 (ip), vehicle: other 94 % of control | dose: 38.0 mg/kg/injection, schedule: Q04DX003 (ip), vehicle: other 92 % of control | [4] 88 % of control

CC(C)COCCCN
inactive: dose: 10.0 mg/kg/injection, schedule: Q01DX009 (ip), vehicle: saline 95 % of control | dose: 50.0 mg/kg/injection, schedule: Q01DX009 (ip), vehicle: saline 95 % of control

CC(C)(C)N(Cc1ccccc1)Cc1ccccc1
inactive: [12] 96 % of control | [13] 98 % of control | [14] 96 % of control

Cc1ccc(C(=O)C(=O)c2ccccc2)c(C)c1
inactive: [1] 107 % of control | [2] 102 % of control | [3] 96 % of control

CCC(C)C(CC(=O)O)C(=O)O (configuration not stated)
inactive: [9] 97 % of control | [10] 94 % of control | [11] 92 % of control

CCOC(=O)/C=C(\CC(=O)O)Nc1ccccc1
inactive: [1] 90 % of control | [2] 93 % of control | [3] 95 % of control

CC(C)C(C)/C=C/C(C)C1CCC2C3CCC4CC(O)CCC4(C)C3CCC12C (configuration not stated)
inactive: dose: 100.0 mg/kg/injection, schedule: Q01DX001 (ip), vehicle: Klucel (hydroxypropylcellulose) (HPC) 90 % of control | dose: 200.0 mg/kg/injection, schedule: Q01DX001 (ip), vehicle: Klucel (hydroxypropylcellulose) (HPC) 97 % of control
